Patent US20240050409A1, “Methods and Compositions for Treating Psychotic Disorders” (SOUND PHARMACEUTICALS INCORPORATED, priority 2014, published 2024)
Entries after “also recorded” stand apart in the source; their conditions may differ.

Tested on: PV immunoreactive interneurons (PVI) in the PFC of NVHL rats
Experiment: PV interneuron counts (stereology) in PFC of NVHL rats
Type: in vivo, Sprague-Dawley rats
Settings: adult (P61) NVHL rats; drinking water 900 mg/l, P5 to P50
Description: This example describes reversal of prepulse inhibition through treatment of ebselen. One of the most replicated findings in schizophrenia research is a reduction of markers associated with cortical inhibitory interneurons (Lewis et al., 2012). […] Whether parvalbumin (PV) positive interneurons in the PFC, including the dorsal prelimbic and anterior cingulate cortex (ACC), are altered in NVHL rats using unbiased stereological counting techniques was assessed. Between postnatal day (P) 21 and P61, the number of PV immunoreactive interneurons (PVI) increased in sham-operated rats, but not in NVHL rats as illustrated in FIGS. 7A and 1B.
Animals: Timed-pregnant Sprague-Dawley rats were obtained at gestational days 13-15 from Charles River (Wilmington, MA) and were individually housed with free access to food and water in a temperature- and humidity-controlled environment with a 12:12h light/dark cycle (lights on at 7:00 AM). When pups reached P5, half of the dams received NAC in their drinking water. Pups were left undisturbed until P7-9 when healthy offspring were randomly separated and received either NVHL or sham surgery. At P21, male and female pups were either transcardially perfused with 4% paraformaldehyde for immunocytochemistry or weaned and housed in groups of two to three, counterbalanced across lesion status. NAC treatment lasted throughout adolescence until P50. […]

CC(=O)N[C@@H](CS)C(=O)O [NAC, N-acetyl cysteine]
effect on PVI count reduction in PFC: prevented; also recorded: rescued
